Laboratory results published in article PMC10726355, “Small Molecule Ligands of the BET-like Bromodomain, SmBRD3, Affect Schistosoma mansoni Survival, Oviposition, and Development” (Journal of Medicinal Chemistry, 2023).
Values after ≈ are worked out from the molar mass of the structure shown. “Also recorded” adds a separate entry of the source. Like-named read-outs stand apart in the source and are kept apart here.

What was measured:
SmBRD3(2) = SmBRD3(2) (Schistosoma mansoni, UniProt A0A5K4ESD7); test: biochemical; type: binding
S. mansoni miracidia = test: Ex vivo miracidia to sporocyst transformation screening; parameters: species or system Schistosoma mansoni; conditions: 0.5-25 μM in 1% DMSO, 48 h
Description: S. mansoni miracidia were obtained by hatching of schistosome eggs as previously described.[73] The resulting miracidial suspension was collected, washed with Chernin’s balanced salt solution (CBSS),[73] and enumerated prior to being used for ex vivo miracidia to sporocyst screens as previously reported.[66],[73] Each compound was tested at 0.5, 2.0, 5.0, 10, and 25 μM final concentrations (in 1% DMSO). Each treatment was set up in duplicate (15–25 miracidia/well). Each titration was performed in three independent experiments (two technical replicates per data point). Parasites cultured in CBSS (containing 1% DMSO) were included as negative controls. After 48 h incubation at 26 °C in the dark, dead, fully transformed and partially transformed miracidia were enumerated as previously described.[74],[75]

SmBRD3(1,2) [1] = biological target: SmBRD3(1,2) (Schistosoma mansoni, UniProt A0A5K4ESD7); test: biochemical; type: binding; conditions: for N number, binding to SmBRD3(1,2): ITC stoichiometry, n=1 ± error of curve fit
SmBRD3(1,2) [2] = test: Differential scanning fluorimetry (thermal shift), SmBRD3(1,2); conditions: DSF; 50 μM compound
Description: Reported ΔTm values are the mean of two replicates.
The differential scanning fluorimetry (DSF) or thermal stability assays were carried out following the protocol described by Niesen et al. and data were analysed as described previously.8 Thermal melting experiments were carried out using the Mx3005p real-time PCR machine (Agilent) and employing a protein concentration of 5 μM for the schistosomal bromodomains [SmBRD3(2),
the DMSO content was 0.5% (v/v). Buffer conditions were 50 mM HEPES buffer, pH 7.5, 500 mM NaCl and a 1:500 dilution of SYPRO® Orange (Invitrogen, CA) was used. The 96-well PCR plates were sealed and centrifuged for 2 min at 1000 rpm at 25 °C before measurement. The temperature was raised with a step of 1 °C per 30 s from 25 °C to 85 °C, and fluorescence readings were taken
difference between the transition midpoints of sample and reference wells containing protein without inhibitor in the same plate. Reported ΔTm values are the mean of two replicates.
Isothermal titration calorimetry experiments were performed on a MicroCal PEAQ-ITC Automated or Manual (Malvern) and analysed with the MicroCal PEAQ-ITC Analysis software (Malvern 1.1.0.1262) using a single binding site model. For each experiment, the first data point was removed from the analysis. The proteins were dialysed at 4 °C overnight in a Slide-A-LyzerR MINI Dialysis Device (2000 MWCO; Thermo Scientific Life Technologies) into 50 mM HEPES, 150 mM NaCl containing 0.2% DMSO; pH 7.4. Proteins were centrifuged to remove aggregates (3 min, 3000 rpm, 25 °C).
Compounds were dissolved as a DMSO stock solution and diluted to the required concentration using dialysis buffer (DMSO free) and to a final DMSO concentration of 0.2% (unless otherwise specified). The cell was stirred at 750 rpm, reference power set to 5 μcal/s and temperature held at 25 °C. After an initial delay of 60 s, 19 x 2 μL injections (first injection 0.4 μL) were performed with a spacing of 180 s. […]

S. mansoni schistosomula = test: Ex vivo schistosomula screening (Roboworm high content imaging); parameters: species or system Schistosoma mansoni; conditions: 20 μM (Figure 7) or 10 μM (Figure S48); 72 h
Description: A high-throughput imaging platform that quantifies both phenotype and motility ex vivo, was used to screen compounds against schistosomula; their effects were assessed as previously described.[20] Briefly, the schistosomula stage of S. mansoni was obtained by mechanical transformation of cercariae, dispensed into 384-well tissue culture plates, and dosed with 20 μM (Figure 7) or 10 μM (Figure S48) of each compound. Following 72 h coincubation of the schistosomula and compound, the plate was subjected to high content imaging to quantify the effects of each compound.
S. mansoni schistosomula were obtained by mechanical transformation from cercariae as previously described,[64] distributed in 384-well tissue culture plates (PerkinElmer, catalogue number 6007460) at 120 parasites/well and dosed with the selected compounds as previously reported.[65]−[68] For this study, each compound (as 10 mM DMSO stock solution) was initially tested at two concentration points (20 and 10 μM final concentration, in duplicates) in at least four independent screens (Z′ scores above 0.35).[69] Each screen contained both positive (10 μM auranofin (AUR) in 0.625% DMSO) and negative (0.625% DMSO) controls. […] Following 72 h schistosomula/compound coincubation, the plate was analyzed by the Roboworm platform.[70] EC50 values were calculated from the titrated concentrations by nonlinear regression, after log transformation of concentrations and data normalization using GraphPad Prism 7.02.

S. mansoni adult worms = test: Ex vivo adult worm screening (motility, IVLEs, pairing); parameters: species or system Schistosoma mansoni; conditions: 72 h
Description: S. mansoni adult worms were recovered by hepatic portal vein perfusion from TO mice (Mus musculus HsdOLa:TO - Tuck Ordinary; Envigo, UK) that were percutaneously infected 7 weeks earlier with 180 cercariae.[65],[71] Following perfusion, schistosomes were washed and processed as previously described.[65],[66] Subsequently, schistosome pairs were seeded into 48 well tissue culture plates (1 worm pair/well, in duplicate) and dosed with the compounds (20 μM in 0.2% DMSO). DMSO (0.2%) and praziquantel (10 μM in 0.1% DMSO) were also included as negative and positive controls, respectively. Parasite motility was assessed by a digital image processing-based system (WormassayGP2),[66] modified after Wormassay.[72]In vitro laid eggs (IVLEs) were enumerated and the presence or absence of paired worms was noted.

CAD solubility assay = type: physicochemical; conditions: phosphate buffered saline, pH 7.4, phosphate buffered saline at pH 7.4; read-out: Aqueous Solubility by CAD
Description: A CAD solubility assay was carried out by Physchem Team, Discovery Analytical, NCE Molecular Discovery at GSK. 5 μL of 10 mM DMSO stock solution was diluted to 100 μL with pH 7.4 phosphate buffered saline, equilibrated for 1 h at room temperature, and filtered through Millipore MultiscreenHTS-PCF filter plates (MSSL BPC). The filtrate was quantified using a suitably calibrated charged aerosol detector.[45]

chromLogD assay = type: physicochemical; conditions: reversed phase HPLC column (Gemini NX C18), pH 7.4
Description: Lipophilicity: a chromLogD assay was carried out by the Physchem Team, Discovery Analytical, NCE Molecular Discovery at GSK. The chromatographic hydrophobicity index (CHI)[46],[47] values were measured using reversed phase HPLC column (50 × 2 mm […] Gemini NX C18, Phenomenex, UK) with fast acetonitrile gradient at starting mobile phase of pHs 2, 7.4, or 10.5. CHI values were derived directly from the gradient retention times using calibration parameters for standard compounds. The CHI value approximates to the volume % organic concentration when the compound elutes. CHI was linearly transformed into a chromLogD[48] value by least-squares fitting of experimental CHI values to calculated cLogP values for over 20000 research compounds.

| Compound | SmBRD3(2) Kd, Repeat 1 (SmBRD3(2); ITC, single run ± error of curve fit, Repeat 1) | SmBRD3(2) Kd (SmBRD3(2); ITC, single value ± error of the curve fit or mean of 2-3 repeats ± s.e.m.) | Effect on miracidia to sporocyst transformation (S. mansoni miracidia; 26 °C) | N number, binding to SmBRD3(1,2) (SmBRD3(1,2) [1]) | Kd (SmBRD3(1,2) [1]; SmBRD3(1,2) Kd, ITC, n = 1 ± error of the curve fit) [nM] | Kd (SmBRD3(1,2) [1]; SmBRD3(1,2) pKd, ITC) [nM] | Thermal stabilisation (ΔTm) of SmBRD3(1,2) (SmBRD3(1,2) [2]) | SmBRD3(2) Kd (SmBRD3(2)) | SmBRD3(2) Kd, Repeat 1 (SmBRD3(2)) | Toxicity to miracidia (dead parasites) (S. mansoni miracidia) | SmBRD3(1,2) pKd (SmBRD3(1,2) [1]; ITC) | Kd (SmBRD3(1,2) [1]; ITC, n = 1 ± error of the curve fit, read-out: SmBRD3(1,2) Kd) [nM] | Effect on schistosomula phenotype (S. mansoni schistosomula) | Effect on adult worm movement (S. mansoni adult worms; 20 μM in 0.2% DMSO) | Effect on egg count (in vitro laid eggs) (S. mansoni adult worms; 20 μM) | solubility at 1 h (CAD solubility assay) [µM] | chromatographic logD (chromLogD assay) | Effect on schistosomula motility (S. mansoni schistosomula) |
| --- | --- | --- | --- | --- | --- | --- | --- | --- | --- | --- | --- | --- | --- | --- | --- | --- | --- | --- |
| Cc1noc(C)c1-c1cc(O)cc(C(O)c2ccccc2)c1 (stereo not drawn) [OXFBD02 (1), OXFBD02, reference compound] | No binding | no binding detected; also recorded: No detectable binding | modest effects | 1.61 ± 3.3e-2 | 683 ± 166 | 631 | stabilize SmBRD3(1,2) |  |  |  |  |  |  |  |  |  |  |  |
| (+)-JQ1 [(+)-JQ1 (5), reference compound] |  |  |  | 3.87 ± 7.0 e-2 |  |  | stabilize SmBRD3(1,2) | no binding detected; also recorded: No detectable binding | No binding | toxic at the higher concentrations | 6.4 | 445 ± 106 | showed activity |  |  |  |  |  |
| CCOC(=O)c1ccc(-c2ccc3c(c2)[C@@H](Nc2ccc4ccsc4c2)C[C@@H](C)N3C(C)=O)cc1 [Compound 17, Ethyl 4-{(2R,4S)-1-Acetyl-4-[(1-benzothiophen-6-yl)amino]-2-methyl-1,2,3,4-tetrahydroquinolin-6-yl}benzoate] |  |  |  |  |  |  |  | No binding | No binding | toxic at the higher concentrations |  |  | did not have substantial effects | some modest effects | some modest effects | 1 (≈ 0.485 µg/mL) | 7.61 | did not have substantial effects |
